These results are taken from patent US11517555B2, “Solid soluble ferric pyrophosphate formulations, kits, and methods using the same” (ROCKWELL MEDICAL, INC., priority 2015, dated 2022).

Values joined by “and” are separate entries in the source; they are usually repeats but may differ in a detail not shown here. Equal values may be shown once.

Series [1] concerns the target apotransferrin and monoferric transferrin (Homo sapiens, UniProt P02787).
The conditions of series [2]: healthy volunteers, 2.5-10 mg iv over 4 hours, 15 and 20 mg iv over 12 hours.
The conditions of series [3]: aqueous solution.
The text on series [4]: The angle of repose is related to resistance to movement between particles (interparticulate friction) and is the constant, three-dimensional angle relative to the horizontal base assumed by a cone-shaped pile of powder. In a typical assay, a symmetrical cone-shaped pile of powder is built by passing a solid particulate formulation through a funnel onto a vibration-free fixed base. The height of the funnel is maintained approximately 2 cm to 4 cm above the pile to minimize the effect of falling particles on the top of the pile. The angle of repose can then be determined by measuring the height and radius of the cone and calculating the angle of repose from the following equation: angle of repose=tan^−1(height/radius).
This is another data set of the same source.

Setting [5] is: Cilas 1180LD laser diffraction, liquid dispersion in mineral oil, replicates 1-3, citrate.

apotransferrin and monoferric transferrin, sequence (P02787 20-698): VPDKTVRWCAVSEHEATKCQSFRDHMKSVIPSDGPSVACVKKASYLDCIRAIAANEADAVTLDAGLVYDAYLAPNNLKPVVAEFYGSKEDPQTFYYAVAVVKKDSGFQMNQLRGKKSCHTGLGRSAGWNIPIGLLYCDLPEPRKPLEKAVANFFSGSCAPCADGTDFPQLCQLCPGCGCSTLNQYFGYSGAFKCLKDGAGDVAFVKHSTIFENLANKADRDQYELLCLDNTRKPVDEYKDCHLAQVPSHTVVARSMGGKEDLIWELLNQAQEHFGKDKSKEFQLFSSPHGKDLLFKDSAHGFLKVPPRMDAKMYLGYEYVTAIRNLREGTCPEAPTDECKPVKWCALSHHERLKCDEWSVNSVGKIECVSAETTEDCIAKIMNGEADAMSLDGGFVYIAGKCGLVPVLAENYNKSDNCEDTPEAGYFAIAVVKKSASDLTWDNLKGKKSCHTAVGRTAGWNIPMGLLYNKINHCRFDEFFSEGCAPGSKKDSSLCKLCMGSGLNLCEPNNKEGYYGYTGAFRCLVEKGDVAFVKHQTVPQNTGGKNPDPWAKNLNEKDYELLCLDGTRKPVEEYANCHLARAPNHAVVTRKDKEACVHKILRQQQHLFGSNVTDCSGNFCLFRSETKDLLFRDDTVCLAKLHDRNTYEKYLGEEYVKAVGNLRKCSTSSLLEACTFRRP

`O=C([O-])CC(O)(CC(=O)[O-])C(=O)[O-].O=P(O)(O)OP(=O)(O)O.[Fe+3]` [SFP, Ferric pyrophosphate citrate]: in series [1], the Pharmacologic action result was “Binds directly to apotransferrin and”. Also, under setting [5], the D10 is 3.57 μm and 3.63 μm and 3.68 μm; the D50 is 12.73 μm and 12.66 μm and 12.58 μm; the D90 was 41.08 μm and 40.18 μm and 39.23 μm. This molecule also showed a primary particle size (light microscopy, dry powder and mineral oil dispersions) above 5 μm. In series [2], the “AUC of baseline-corrected serum iron” value is reported as “increased in a dose proportional manner” and the “Cmax of baseline-corrected serum iron” value is listed as “increased in a dose proportional manner”. The “Fe(III)-ligand binding” value in series [3] is “Covalent and stable in aqueous”. The “Angle of Response, Average” value in series [4] (average of 3 replicate measurements) was 41.5 °. Besides, in series [4] (single replicate measurements 1-3, citrate), the “Angle of Response” value is 42.3 ° and 41.4 ° and 40.9 °.
